In brackets after ≈: the same amount, converted by molar mass. Read-outs that look alike come from different tables or passages of the source.
Legend:
[1] = tested on: E. coli TEM-1; format: cell-based; details: TEM-1, class A, inhibitor constant 4 μg/mL
[2] = tested on: E. coli SHV-3; assay: Synergy MIC, inhibitor at 4 μg/mL (Example 4); format: cell-based; details: SHV-3, class A, inhibitor constant 4 μg/mL
[3] = tested on: Klebsiella oxytoca ATCC 51983; assay: MIC broth microdilution (Example 2); details: ATCC51983
[4] = tested on: Klebsiella pneumoniae CMY-2; assay: MIC, characterised β-lactamase producing strain (Example 5, Tables 5-7); format: cell-based
Procedure: (§1) The MIC experiments were performed in duplicate in 96-well microtiter plates using CAMHB. […] The bacterial suspension with final inoculum 10^5 CFU/mL was transferred to the test medium containing the antibacterial substances. In each well of a 96-well microtiter plate was combined 50 μL of bacterial inoculum, 50 μL of antibiotic dilutions (or media for determination of the MIC of the antibiotic in the absence of test compound). Each plate included 4 wells with no bacterial inoculum (negative control) and 4 wells with no test compound and no antibiotic (positive control). The plates were incubated at 35° C. for 24 h. Purity check and colony counts on each inoculum suspension was performed to ensure that the final inoculum concentration routinely obtained closely approximates 5×10^5 CFU/mL. In addition the assay is routinely monitored by testing standard antibiotics and ensuring that MIC values are within the recommended ranges for the respective strains.
(§2) This test permits comparisons to be made between bacterial growth in the presence of antibiotic alone and bacterial growth in the presence of both an antibiotic and a novel (test) compound.

[5] = tested on: Pseudomonas aeruginosa OXA-6; assay: as above; format: cell-based
Procedure: as §1, §2

[6] = tested on: Escherichia coli FOX-1; assay: as above; format: cell-based
Procedure: as §1, §2

[7] = tested on: Escherichia coli SHV-1; assay: as above; format: cell-based
Procedure: as §1, §2

[8] = tested on: Klebsiella pneumoniae TEM-10; assay: as above; format: cell-based
Procedure: as §1, §2

[9] = tested on: Escherichia coli TEM-8; assay: as above; format: cell-based
Procedure: as §1, §2

[10] = tested on: Escherichia coli TEM-21; assay: as above; format: cell-based
Procedure: as §1, §2

[11] = tested on: Escherichia coli FOX-2; assay: as above; format: cell-based
Procedure: as §1, §2

[12] = tested on: Klebsiella pneumoniae LAT-2; assay: as above; format: cell-based
Procedure: as §1, §2

[13] = tested on: Pseudomonas aeruginosa PSE-3; assay: as above; format: cell-based
Procedure: as §1, §2

[14] = tested on: Escherichia coli OXA-1; assay: as above; format: cell-based
Procedure: as §1, §2

[15] = tested on: Escherichia coli OXA-7; assay: as above; format: cell-based
Procedure: as §1, §2

[16] = tested on: Escherichia coli CMY-2; assay: as above; format: cell-based
Procedure: as §1, §2

[17] = tested on: Escherichia coli TEM-36; assay: as above; format: cell-based
Procedure: as §1, §2

[18] = tested on: Escherichia coli SHV-4; assay: as above; format: cell-based
Procedure: as §1, §2

[19] = tested on: Escherichia coli SHV-3; assay: as above; format: cell-based
Procedure: (§3) The MIC experiments were performed in duplicate in 96-well microtiter plates using CAMHB. Serial twofold dilutions of each antibiotic either alone or in combination with constant concentration ratio of a β-lactamase inhibitor (2:1) were prepared in CAMHB. The bacterial suspension with final inoculum 10^5 CFU/mL was transferred to the test medium containing the antibacterial substances. In each well of a 96-well microtiter plate was combined 50 μL of bacterial inoculum, 50 μL of antibiotic dilutions (or media for determination of the MIC of the antibiotic in the absence of test compound). Each plate included 4 wells with no bacterial inoculum (negative control) and 4 wells with no test compound and no antibiotic (positive control). The plates were incubated at 35° C. for 24 h. Purity check and colony counts on each inoculum suspension was performed to ensure that the final inoculum concentration routinely obtained closely approximates 5×10^5 CFU/mL. In addition the assay is routinely monitored by testing standard antibiotics and ensuring that MIC values are within the recommended ranges for the respective strains.
as §2

[20] = tested on: Escherichia coli SHV-2A; assay: as above; format: cell-based
Procedure: as §3, §2

[21] = tested on: Escherichia coli HMS-1; assay: as above; format: cell-based
Procedure: as §3, §2

[22] = tested on: Escherichia coli TEM-2; assay: as above; format: cell-based
Procedure: as §3, §2

[23] = tested on: Klebsiella oxytoca K1 highperproduced; assay: as above; format: cell-based
Procedure: as §3, §2

[24] = tested on: Escherichia coli OXA-2; assay: as above; format: cell-based
Procedure: as §3, §2

[25] = tested on: Pseudomonas aeruginosa CARB-3; assay: as above; format: cell-based
Procedure: as §3, §2

[26] = tested on: Escherichia coli TEM-31; assay: as above; format: cell-based
Procedure: as §3, §2

[27] = tested on: Escherichia coli OXA-3; assay: as above; format: cell-based
Procedure: as §3, §2

[28] = tested on: Escherichia coli TEM-3; assay: as above; format: cell-based
Procedure: as §3, §2

[29] = tested on: Klebsiella pneumoniae TEM-1 hyperproduced; format: cell-based
Procedure: as §1, §2

[30] = tested on: Escherichia coli TEM-9; assay: MIC, characterised β-lactamase producing strain (Example 5, Tables 5-7); format: cell-based
Procedure: as §1, §2

[31] = Table 6, LK-157 at constant 4 μg/mL in combination
[32] = Table 7, combination at constant concentration ratio (2:1)

SMILES: CO/N=C(\C(=O)N[C@@H]1C(=O)N2C(C(=O)O)=C(COC(C)=O)CS[C@H]12)c1csc(N)n1 [cefotaxime]
- MIC [1]: > 25.6 µg/mL
- MIC [2]: 3.2 µg/mL
- MIC [3]: 2 to 8 µg/mL (≈ 4.39 to 17.6 µM)
- MIC [4, 31]: 16 µg/mL
- MIC [5, 31]: 16 µg/mL
- MIC [6, 31]: 2 µg/mL
- MIC [7, 31]: 0.063 µg/mL
- MIC [8, 31]: 0.5 µg/mL
- MIC [9, 31]: 4 µg/mL
- MIC [10, 31]: 32 µg/mL
- MIC [11, 31]: 64 µg/mL
- MIC [12, 31]: 16 µg/mL
- MIC [13, 31]: 16 µg/mL
- MIC [14, 31]: 0.5 µg/mL
- MIC [15, 31]: 0.25 µg/mL
- MIC [16, 31]: 32 µg/mL
- MIC [17, 31]: 0.25 µg/mL
- MIC [18, 31]: 16 µg/mL
- MIC ([19]; Table 6, Escherichia coli SHV-3, LK-157 at constant 4 μg/mL in combination): 32 µg/mL
- MIC [20, 31]: 8 µg/mL
- MIC ([21]; Table 6, Escherichia coli HMS-1, LK-157 at constant 4 μg/mL in combination): 0.063 µg/mL
- MIC ([22]; Table 6, Escherichia coli TEM-2, LK-157 at constant 4 μg/mL in combination): 0.063 µg/mL
- MIC ([23]; Table 6, Klebsiella oxytoca K1 highperproduced, first listed strain, LK-157 at constant 4 μg/mL in combination): 1 µg/mL
- MIC ([23]; Table 6, Klebsiella oxytoca K1 highperproduced, second listed strain, LK-157 at constant 4 μg/mL in combination): 1 µg/mL
- MIC ([24]; Table 6, Escherichia coli OXA-2, LK-157 at constant 4 μg/mL in combination): 0.063 µg/mL
- MIC ([25]; Table 6, Pseudomonas aeruginosa CARB-3, LK-157 at constant 4 μg/mL in combination): 16 µg/mL
- MIC ([26]; Table 6, Escherichia coli TEM-31, LK-157 at constant 4 μg/mL in combination): 0.063 µg/mL
- MIC ([27]; Table 6, Escherichia coli OXA-3, LK-157 at constant 4 μg/mL in combination): 0.063 µg/mL
- MIC ([28]; Table 6, Escherichia coli TEM-3, LK-157 at constant 4 μg/mL in combination): 16 µg/mL
- MIC [29, 31]: 0.063 µg/mL

SMILES: CC(C)(O/N=C(\C(=O)N[C@@H]1C(=O)N2C(C(=O)[O-])=C(C[n+]3ccccc3)CS[C@H]12)c1csc(N)n1)C(=O)O [ceftazidime]
- MIC [1]: 3.2 µg/mL (≈ 5.85 µM)
- MIC [2]: 0.8 µg/mL
- MIC [3]: 32 to 64 µg/mL (≈ 58.5 to 117 µM)
- MIC [4, 32]: 64 µg/mL
- MIC ([30]; Table 7, Escherichia coli TEM-9, combination at constant concentration ratio (2:1)): ≧128 μg/mL
- MIC [5, 32]: 2 µg/mL
- MIC [6, 32]: 8 µg/mL
- MIC [7, 32]: 0.25 µg/mL
- MIC [8, 32]: ≧128 μg/mL
- MIC [9, 32]: ≧128 μg/mL
- MIC [10, 32]: 16 µg/mL
- MIC [11, 32]: ≧128 μg/mL
- MIC [12, 32]: ≧128 μg/mL
- MIC [13, 32]: 4 µg/mL
- MIC [14, 32]: 0.25 µg/mL
- MIC [15, 32]: 0.5 µg/mL
- MIC [16, 32]: ≧128 μg/mL
- MIC [17, 32]: 0.5 µg/mL
- MIC [18, 32]: ≧128 μg/mL
- MIC ([19]; Table 7, Escherichia coli SHV-3, combination at constant concentration ratio (2:1)): 2 µg/mL
- MIC [20, 32]: 4 µg/mL
- MIC ([21]; Table 7, Escherichia coli HMS-1, combination at constant concentration ratio (2:1)): 0.25 µg/mL
- MIC ([22]; Table 7, Escherichia coli TEM-2, combination at constant concentration ratio (2:1)): 0.5 µg/mL
- MIC ([23]; Table 7, Klebsiella oxytoca K1 hyperproduced, first listed strain, combination at constant concentration ratio (2:1)): 1 µg/mL
- MIC ([23]; Table 7, Klebsiella oxytoca K1 hyperproduced, second listed strain, combination at constant concentration ratio (2:1)): 0.5 µg/mL
- MIC ([24]; Table 7, Escherichia coli OXA-2, combination at constant concentration ratio (2:1)): 1 µg/mL
- MIC ([25]; Table 7, Pseudomonas aeruginosa CARB-3, combination at constant concentration ratio (2:1)): 2 µg/mL
- MIC ([26]; Table 7, Escherichia coli TEM-31, combination at constant concentration ratio (2:1)): 0.25 µg/mL
- MIC ([27]; Table 7, Escherichia coli OXA-3, combination at constant concentration ratio (2:1)): 0.5 µg/mL
- MIC ([28]; Table 7, Escherichia coli TEM-3, combination at constant concentration ratio (2:1)): 32 µg/mL
- MIC [29, 32]: 0.25 µg/mL

SMILES: CO/N=C(\C(=O)N[C@@H]1C(=O)N2C(C(=O)[O-])=C(C[N+]3(C)CCCC3)CS[C@H]12)c1csc(N)n1 [cefepime]
- MIC [1]: 12.8 µg/mL (≈ 26.6 µM)
- MIC [2]: 0.4 µg/mL
- MIC ([30]; Escherichia coli TEM-9, functional group 2be, LK-157 in combination constant 4 μg/mL): 128 µg/mL
- MIC ([19]; Escherichia coli SHV-3, functional group 2be, LK-157 in combination constant 4 μg/mL): 4 µg/mL
- MIC ([20]; functional group 2be, LK-157 in combination constant 4 μg/mL): 16 µg/mL
- MIC ([21]; Escherichia coli HMS-1, functional group 2b, LK-157 in combination constant 4 μg/mL): 0.125 µg/mL
- MIC ([22]; Escherichia coli TEM-2, functional group 2b, LK-157 in combination constant 4 μg/mL): 0.25 µg/mL
- MIC ([23]; Klebsiella oxytoca K1 highperproduced, functional group 2be, first listed (r47), LK-157 in combination constant 4 μg/mL): 1 µg/mL
- MIC ([23]; Klebsiella oxytoca K1 highperproduced, functional group 2be, second listed (r48), LK-157 in combination constant 4 μg/mL): 4 µg/mL
- MIC ([24]; Escherichia coli OXA-2, functional group 2d, LK-157 in combination constant 4 μg/mL): 0.125 µg/mL
- MIC ([25]; Pseudomonas aeruginosa CARB-3, functional group 2c, LK-157 in combination constant 4 μg/mL): 16 µg/mL
- MIC ([26]; Escherichia coli TEM-31, functional group 2br, LK-157 in combination constant 4 μg/mL): 0.125 µg/mL
- MIC ([27]; Escherichia coli OXA-3, functional group 2d, LK-157 in combination constant 4 μg/mL): 0.125 µg/mL
- MIC ([28]; Escherichia coli TEM-3, functional group 2be, LK-157 in combination constant 4 μg/mL): 4 µg/mL

— patent US20100029604A1, “ANTIBACTERIAL COMBINATION AND ITS USE” (priority 2007, published 2010)
